{"source": "patent US8703716B2", "about": "“Maternal sialic acid supplementation” (DSM IP Assets B.V., priority 2010, dated 2014)", "key": {"[1]": {"tested_on": "MBP expression in the cerebellum", "experiment": "MBP expression by western blot of offspring cerebellum after maternal NANA supplementation during lactation", "type": "in vivo, rat", "method": "(§1) FIGS. 3A and 3B show the maternal NANA supplementation protocol for experiments testing additional doses of NANA administered during gestation (FIG. 3A) and lactation (FIG. 3B).\nTo further assess the effects of maternal NANA supplementation during lactation on the brain development of offspring, MBP expression was measured by western blot analysis of cerebellum that was harvested from pups at postnatal days 0, 8, and 16 described in FIG. 3B. As described in Example 2, the blots were probed with an antibody for MBP as described in Example 2 that recognizes the 18 kilodalton form (18 kD MBP) and 21 kilodalton form (21 kD MBP) and an antibody for β-actin as a protein loading control. Quantitation of MBP expression performed with densitometry of the bands in each lane, and each lane represented an individual animal as described in Example 2.\nThe graphs in FIGS. 12A and 12B represent the average intensity of MBP expression normalized by the corresponding actin signal in relative fluorescence units (Normalized R.F.U.)."}, "hippocampal cultures": {"tested_on": "hippocampal cultures", "experiment": "Ex vivo neurite extension (Map2a staining) in hippocampal cultures from offspring of NANA-supplemented dams", "design": "species or system Long-Evans rats", "conditions": "6 days culture", "excerpt": "(§2) To determine the effects of supplementing maternal diets with sialic acid (n-acetylneuraminic acid; NANA) on the brain development of the offspring, forty (40) pregnant Long-Evans rats were placed on four (4) diets (10 dams per diet) that differed in their administration of sialic acid (Nacalai, San Diego, Calif.). All animals were started on the diets on the 4th day after being mated (gestational day 4).\n[…] These animals were then placed on a base diet after the offspring were born. Conversely, dams on the lactational diet (“fact”) were placed on the base diet during gestation but received NANA (200 mg/kg/d) through the diet during lactation. […]\nTo determine the effects of maternal NANA supplementation on the brain development of offspring, neurite extension was measured in hippocampal cultures made from p0 pups described in FIG. 2. […] The number of cells in each culture was assessed by staining with 4′,6-diamidino-2-phenylindole (DAPI).\nThe percent area of Map2a staining was determined by computerized counting of all Map2a positive pixels in each image (5 random fields for each of 9-10 cultures per group; 1 culture per animal). […] A two-tailed, unpaired students t-test was used to compare the two groups, and the test detected a significant difference between the supplemented group and the control group (**, p<0.01). […]"}, "[2]": {"tested_on": "thickness of MBP expression in white matter of p16 pup brain", "experiment": "Thickness of MBP expression in offspring brain slices by MBP immunohistochemistry and confocal laser microscopy", "type": "in vivo, Long-Evans rats", "conditions": "p16 pups", "excerpt": "as §2, with “4). […]” for “4).”\nas §1\nTo determine the effects of maternal NANA supplementation on the brain development of offspring, assessment of the CC and LOT was performed by taking thin slices of the p16 pup brain described in FIG. 2, staining the slices with MBP immunohistochemistry, and measuring the areas of interest with confocal laser microscopy. […] The locations of the LOT and regions associated with the anterior commissure (AC) are also illustrated in FIG. 7A. […]\n(§3) To further assess the effects of maternal NANA supplementation during lactation on the brain development of offspring, assessment of the corpus callosum (CC) and lateral olfactory tract (LOT) was performed by taking thin slices of the p16 pup brain (LacDR p16) described in FIG. 3B, staining the slices with MBP immunohistochemistry, and quantitating the areas of interest with confocal laser microscopy as described in Example 2. Maternal supplementation with NANA at doses of 25 mg/kg/d, 50 mg/kg/d, 100 mg/kg/d and 200 mg/kg/d was tested.\nas §3, with “motor pyramids” for “corpus callosum (CC)”, “medial lemniscus” for “lateral olfactory tract (LOT)”"}, "[3]": {"experiment": "NANA and Neu5Gc concentrations in cerebrospinal fluid after a single oral NANA dose", "type": "in vivo, rat", "conditions": "single oral dose NANA 200 mg/kg", "method": "To assess whether NANA is bioavailable to the brain in its native form or whether NANA is processed on its way across the blood-brain barrier, the levels of NANA and one of its potential metabolites were measured in rat cerebrospinal fluid (CSF). The animals' diets were first cleared of NANA by placing them on NANA-free diets for one week. The animals were then given a single, oral dose of NANA (200 mg/kg), and the CSF of each animal was sampled at 0, 0.25, 1, 2, 4, and 6 hours after dosing. The concentrations of NANA and Neu5Gc in the CSF were then assessed by high-pressure liquid chromatography coupled with fluorescence detection methods and quantitation standards."}, "[4]": {"tested_on": "myelin basic protein (MBP) expression in the developing whole brain", "experiment": "MBP expression by western blot of whole brain lysates of offspring after maternal NANA supplementation", "type": "in vivo, Long-Evans rats", "excerpt": "as §2\nDams placed on the gestational diet (“Gest”) received NANA (200 milligrams (mg) per kilogram (kg) body weight per day (d)) only during gestation. These animals were then placed on a base diet after the offspring were born. Conversely, dams on the lactational diet (“fact”) were placed on the base diet during gestation but received NANA (200 mg/kg/d) through the diet during lactation. Dams receiving NANA (200 mg/kg/d) through the diet throughout gestation and lactation were known as the “G+L” group.\nAfter birth, the pups born to each diet group were crossfostered within their respective group to control for any differences in maternal care. The litters were then culled to 10 pups per dam to prevent nutritional differences caused by lack of access to the dam. The study was also designed to allow for the use of 5 pups at each endpoint (N=5) while keeping the litter size equal across all groups. Pups were taken at postnatal day 1 (p1) to determine potential differences between gestational supplementation and lactational supplementation of the maternal diet. […] Pups were also taken at p8 because it served as a midway timepoint and because the primary biomarker used cannot be detected until this day in rat development.\nTo determine the effects of maternal NANA supplementation on the brain development of offspring, MBP expression was measured by western blot analysis of whole brain lysates that were harvested from pups at postnatal days 0, 8, and 16 described in FIG. 2. […]\nThe graphs represent the average intensity of MBP expression normalized by the corresponding actin signal in relative fluorescence units (Normalized R.F.U.)."}, "[5]": {"conditions": "mice, dams and pups lacking the gene to produce Neu5Gc; cited from earlier work"}, "[6]": {"conditions": "maternal NANA during lactation, at certain doses tested, ANOVA p<0.001"}, "[7]": {"conditions": "maternal NANA 25-200 mg/kg/d during gestation"}, "[8]": {"conditions": "maternal NANA 25-200 mg/kg/d during lactation, p<0.01 / p<0.001"}}, "data": [{"molecule": "CC(=O)N[C@H]1[C@H]([C@H](O)[C@H](O)CO)OC(O)(C(=O)O)C[C@@H]1O", "note": "(some centres unmarked) [NANA, N-acetylneuraminic acid]", "values": [{"measurement": "total MBP (combined 18 kDa and 21 kDa) in cerebellum", "setting": "[1]; maternal NANA 25 mg/kg/d during lactation, p<0.01", "value": "significant increase"}, {"measurement": "total MBP (combined 18 kDa and 21 kDa) in cerebellum", "setting": "[1]; maternal NANA 100 mg/kg/d during lactation, p<0.05", "value": "significant increase"}, {"measurement": "total MBP (combined 18 kDa and 21 kDa) in cerebellum", "setting": "[1]; maternal NANA 200 mg/kg/d during lactation, p<0.01", "value": "significant increase"}, {"measurement": "expression of 18 kDa MBP normalized to actin in cerebellum", "setting": "[1]; [6]", "value": "significant increase"}, {"measurement": "expression of 21 kDa MBP normalized to actin in cerebellum", "setting": "[1]; [6]", "value": "significant increase"}, {"measurement": "percent area of Map2a staining per neuron (neurite extension)", "setting": "hippocampal cultures; dams fed NANA 25, 50, 100, 200 mg/kg/d during gestation, p<0.01 / p<0.001", "value": "significantly greater"}, {"measurement": "percent area of Map2a staining per neuron (neurite extension)", "setting": "hippocampal cultures; p0 pups, dams fed NANA 200 mg/kg/d during gestation, p<0.01 vs control", "value": "significantly greater"}, {"measurement": "thickness of MBP expression in the motor pyramids", "setting": "[2]; maternal NANA 50 mg/kg/d during lactation, p=0.022", "value": "significant increase"}, {"measurement": "maximal thickness of MBP expression in the lateral olfactory tract (LOT)", "setting": "[2]; maternal NANA 200 mg/kg/d during gestation, lactation or gestation plus lactation", "value": "significant increases"}, {"measurement": "thickness of MBP expression in the corpus callosum (CC)", "setting": "[2]; maternal NANA 200 mg/kg/d during gestation, lactation or gestation plus lactation, ANOVA p<0.001", "value": "significant increases"}, {"measurement": "thickness of MBP expression in the middle CC", "setting": "[2]; [7]", "value": "did not appear to change"}, {"measurement": "thickness of MBP expression in the midline CC decussation", "setting": "[2]; [7]", "value": "did not appear to change"}, {"measurement": "thickness of MBP expression in the frontal CC", "setting": "[2]; maternal NANA 25-200 mg/kg/d during gestation, p<0.001", "value": "significant increases"}, {"measurement": "thickness of MBP expression in the LOT", "setting": "[2]; maternal NANA 25-200 mg/kg/d during gestation, p<0.05 / p<0.001", "value": "significant increases"}, {"measurement": "thickness of MBP expression in the medial lemniscus", "setting": "[2]; maternal NANA 25-200 mg/kg/d during gestation, p<0.05 / p<0.01", "value": "significant increases"}, {"measurement": "thickness of MBP expression in the motor pyramids", "setting": "[2]; maternal NANA 25-200 mg/kg/d during gestation, p<0.05 to p<0.001", "value": "significant increases"}, {"measurement": "thickness of MBP expression in the medial lemniscus", "setting": "[2]; maternal NANA 25-200 mg/kg/d during lactation", "value": "no significant changes"}, {"measurement": "thickness of MBP expression in the LOT", "setting": "[2]; maternal NANA 25-200 mg/kg/d during lactation, p<0.001", "value": "significant increases"}, {"measurement": "thickness of MBP expression in the midline CC", "setting": "[2]; [8]", "value": "significant increases"}, {"measurement": "thickness of MBP expression in the rostral CC", "setting": "[2]; [8]", "value": "significant increases"}, {"measurement": "thickness of MBP expression in the midline CC decussation", "setting": "[2]; maternal NANA 25-200 mg/kg/d during lactation, p<0.05 / p<0.001", "value": "significant increases"}, {"measurement": "thickness of MBP expression in the motor pyramids", "setting": "[2]; maternal NANA during lactation, the other doses tested (25, 100, 200 mg/kg/d)", "value": "no significant changes"}, {"measurement": "time at which CSF NANA returned to baseline values", "setting": "[3]; rat CSF", "value": "≤ 1", "unit": "h"}, {"measurement": "time of peak of native NANA in CSF after dosing", "setting": "[3]; rat CSF", "value": 15, "unit": "min"}, {"measurement": "blood-brain barrier crossing of native NANA", "setting": "[3]; rat, from CSF levels", "value": "crossed the blood-brain barrier"}, {"measurement": "expression of both MBP isoforms, lactational diet compared to NANA-deficient diet", "setting": "[4]; NANA 200 mg/kg/d during lactation only, overall analysis and postnatal day 8, Tukey p<0.05", "value": "significantly increased"}, {"measurement": "expression of 21 kDa MBP normalized to β-actin", "setting": "[4]; whole brain of pups, maternal NANA 200 mg/kg/d in diet, one-way ANOVA p=0.012", "value": "significant increase"}, {"measurement": "expression of 18 kDa MBP normalized to β-actin", "setting": "[4]; whole brain of pups, maternal NANA 200 mg/kg/d in diet, one-way ANOVA p=0.037", "value": "significant increase"}]}, {"molecule": "O=C(CO)N[C@H]1[C@H]([C@H](O)[C@H](O)CO)OC(O)(C(=O)O)C[C@@H]1O", "note": "(some centres unmarked) [Neu5Gc, N-glycolylneuraminic acid]", "values": [{"measurement": "transfer of Neu5Gc from fed dams to pups", "setting": "[5]", "value": "does not transfer"}]}]}
